Measured values reported in patent US9930888B2, “Composition” (Conopco, Inc., priority 2013, dated 2018).

Test system: S. epidermidis
Assay: bacterial respiration of S. epidermidis suspension in microplate
Format: cell-based
Conditions: lactam pre-blended with hydrotrope, added to remainder of composition, diluted to 11.5 ppm and 0.575 ppm; 20 hours
Method: Test samples were diluted in sterile water to achieve a 11.5 ppm level of lactam. Dilute solution (80 μl) was added to a S. epidermidis suspension (20 μl) of bacteria at a concentration of 8 logs in a microplate. Growth media (100 μl tryptone soya broth) was added to each well of the microplate and incubated for 20 hours. Bacterial respiration was measured every 30 minutes and the results were: • A—lactam+hydrotrope only (respiration of surviving bacteria detected ˜4-5 h) • B—lactam added directly to base formulation (which contains MPG)—no pre-mixing prior to addition (respiration of surviving bacteria detected 4-5 hrs) • C—lactam pre-mixed with hydrotrope and then added to base formulation (respiration of surviving bacteria not detected—20 hrs is max detection time) • D—hydrotrope added to base formulation (respiration of surviving bacteria detected 3-4 hrs). The example below is from data obtained when pre-blending lactams with hydrotrope before adding to the remainder of the composition, and diluting to 11.5 ppm and 0.575 ppm in sterile water in order to assess efficacy against S. epidermidis suspension Dilute solution (80 μl) was added to a S. epidermidis suspension (20 μl) of bacteria at a concentration of 8 logs in a microplate. Growth media (100 μl tryptone soya broth) was added to each well of the microplate and incubated for 20 hours. Bacterial respiration was measured every 30 minutes. Data of the test samples were then compared to un-treated cell suspensions (sterile water added instead of test samples) and percent inhibition calculated.

SMILES	Result (inhibition of bacterial respiration versus water control) [%]
C=C1NC(=O)CC1c1ccccc1F (centres unmarked) [5-methylene-4-(2′-fluorophenyl)-dihydropyrrol-2-one]	79.4
C=C1NC(=O)C=C1c1ccc(Br)cc1 [5-methylene-4-(4′-bromophenyl)-dihydroprrol-2-one]	82.5
